Calls of active or inactive are those of the source. No cut-off for these calls is given here.
Experiments:
Assay type in all cases: functional, organism-based
[1] = tested on: Pseudomonas aeruginosa; experiment: Antimicrobial activity against Pseudomonas aeruginosa NCTC 10490 at 200 ppm after 48 hrs
[2] = tested on: Escherichia coli; experiment: Antimicrobial activity against Escherichia coli 10536 at 50 ppm after 24 hrs
[3] = tested on: Bacillus subtilis; experiment: Antimicrobial activity against Bacillus subtilis 6633 at 5 ppm after 24 hrs
[4] = tested on: Bordetella bronchiseptica; experiment: Antimicrobial activity against Bordetella bronchiseptica 4614 at 100 ppm after 48 hrs
[5] = tested on: Aspergillus niger; experiment: Antimicrobial activity against Aspergillus niger at 50 ppm after 24 hrs
[6] = tested on: Bordetella bronchiseptica; experiment: Antimicrobial activity against Bordetella bronchiseptica 4614 at 200 ppm after 48 hrs
[7] = tested on: Bacillus subtilis; experiment: Antimicrobial activity against Bacillus subtilis 6633 at 10 ppm after 48 hrs
[8] = tested on: Bacillus subtilis; experiment: Antimicrobial activity against Bacillus subtilis 6633 at 200 ppm after 48 hrs
[9] = tested on: Bordetella bronchiseptica; experiment: Antimicrobial activity against Bordetella bronchiseptica 4614 at 50 ppm after 48 hrs
[10] = tested on: Salmonella enterica subsp. enterica serovar Gallinarum; experiment: Antimicrobial activity against Salmonella gallinarum X142 at 50 ppm after 24 hrs
[11] = tested on: Micrococcus luteus; experiment: Antimicrobial activity against Sarcina lutea 9341 at 10 ppm after 24 hrs
[12] = tested on: Aspergillus niger; experiment: Antimicrobial activity against Aspergillus niger at 100 ppm after 24 hrs
[13] = tested on: Bordetella bronchiseptica; experiment: Antimicrobial activity against Bordetella bronchiseptica 4614 at 5 ppm after 24 hrs
[14] = tested on: Micrococcus luteus; experiment: Antimicrobial activity against Sarcina lutea 9341 at 200 ppm after 48 hrs
[15] = tested on: Saccharomyces pastorianus; experiment: Antimicrobial activity against Saccharomyces carlsbergensis at 50 ppm after 24 hrs
[16] = tested on: Salmonella enterica subsp. enterica serovar Gallinarum; experiment: Antimicrobial activity against Salmonella gallinarum X142 at 10 ppm after 24 hrs
[17] = tested on: Staphylococcus aureus; experiment: Antimicrobial activity against Staphylococcus aureus 6538-P at 10 ppm after 48 hrs
[18] = tested on: Pseudomonas aeruginosa; experiment: Antimicrobial activity against Pseudomonas aeruginosa NCTC 10490 at 50 ppm after 48 hrs
[19] = tested on: Saccharomyces pastorianus; experiment: Antimicrobial activity against Saccharomyces carlsbergensis at 200 ppm after 24 hrs
[20] = tested on: Staphylococcus aureus; experiment: Antimicrobial activity against penicilln-resistant Staphylococcus aureus at 100 ppm after 24 hrs
[21] = tested on: Staphylococcus aureus; experiment: Antimicrobial activity against penicillin-resistant Staphylococcus aureus at 50 ppm after 24 hrs
[22] = tested on: Saccharomyces pastorianus; experiment: Antimicrobial activity against Saccharomyces carlsbergensis at 100 ppm after 24 hrs
[23] = tested on: Salmonella enterica subsp. enterica serovar Gallinarum; experiment: Antimicrobial activity against Salmonella gallinarum X142 at 100 ppm after 24 hrs
[24] = tested on: Staphylococcus aureus; experiment: Antimicrobial activity against penicillin-resistant Staphylococcus aureus at 200 ppm after 24 hrs
[25] = tested on: Saccharomyces pastorianus; experiment: Antimicrobial activity against Saccharomyces carlsbergensis at 500 ppm after 24 hrs
[26] = tested on: Bacillus subtilis; experiment: Antimicrobial activity against Bacillus subtilis 6633 at 100 ppm after 48 hrs
[27] = tested on: Bacillus subtilis; experiment: Antimicrobial activity against Bacillus subtilis 6633 at 50 ppm after 48 hrs
[28] = tested on: Staphylococcus aureus; experiment: Antimicrobial activity against penicilln-resistant Staphylococcus aureus at 10 ppm after 24 hrs
[29] = tested on: Saccharomyces pastorianus; experiment: Antimicrobial activity against Saccharomyces carlsbergensis at 10 ppm after 24 hrs
[30] = tested on: Pseudomonas aeruginosa; experiment: Antimicrobial activity against Pseudomonas aeruginosa NCTC 10490 at 10 ppm after 48 hrs
[31] = tested on: Pseudomonas aeruginosa; experiment: Antimicrobial activity against Pseudomonas aeruginosa NCTC 10490 at 100 ppm after 48 hrs
[32] = tested on: Micrococcus luteus; experiment: Antimicrobial activity against Sarcina lutea 9341 at 50 ppm after 24 hrs
[33] = tested on: Micrococcus luteus; experiment: Antimicrobial activity against Sarcina lutea 9341 at 5 ppm after 24 hrs
[34] = tested on: Staphylococcus aureus; experiment: Antimicrobial activity against Staphylococcus aureus 6538-P at 200 ppm after 48 hrs
[35] = tested on: Streptococcus pneumoniae; experiment: Antimicrobial activity against Pneumococcus clinical isolates at 200 ppm after 48 hrs
[36] = tested on: Staphylococcus aureus; experiment: Antimicrobial activity against Staphylococcus aureus 6538-P at 100 ppm after 48 hrs
[37] = tested on: Staphylococcus aureus; experiment: Antimicrobial activity against penicillin-resistant Staphylococcus aureus at 5 ppm after 24 hrs
[38] = tested on: Escherichia coli; experiment: Antimicrobial activity against Escherichia coli 10536 at 10 ppm after 24 hrs
[39] = tested on: Streptococcus pneumoniae; experiment: Antimicrobial activity against Pneumococcus clinical isolates at 100 ppm after 48 hrs
[40] = tested on: Aspergillus niger; experiment: Antimicrobial activity against Aspergillus niger at 200 ppm after 24 hrs
[41] = tested on: Salmonella enterica subsp. enterica serovar Gallinarum; experiment: Antimicrobial activity against Salmonella gallinarum X142 at 5 ppm after 24 hrs
[42] = tested on: Saccharomyces pastorianus; experiment: Antimicrobial activity against Saccharomyces carlsbergensis at 5 ppm after 24 hrs
[43] = tested on: Streptococcus pneumoniae; experiment: Antimicrobial activity against Pneumococcus clinical isolates at 10 ppm after 48 hrs
[44] = tested on: Escherichia coli; experiment: Antimicrobial activity against Escherichia coli 10536 at 100 ppm after 24 hrs
[45] = tested on: Escherichia coli; experiment: Antimicrobial activity against Escherichia coli 10536 at 200 ppm after 24 hrs
[46] = tested on: Bordetella bronchiseptica; experiment: Antimicrobial activity against Bordetella bronchiseptica 4614 at 10 ppm after 48 hrs
[47] = tested on: Aspergillus niger; experiment: Antimicrobial activity against Aspergillus niger at 10 ppm after 24 hrs
[48] = tested on: Streptococcus pneumoniae; experiment: Antimicrobial activity against Pneumococcus clinical isolates at 50 ppm after 48 hrs
[49] = tested on: Escherichia coli; experiment: Antimicrobial activity against Escherichia coli 10536 at 5 ppm after 24 hrs
[50] = tested on: Salmonella enterica subsp. enterica serovar Gallinarum; experiment: Antimicrobial activity against Salmonella gallinarum X142 at 200 ppm after 24 hrs
[51] = tested on: Staphylococcus aureus; experiment: Antimicrobial activity against Staphylococcus aureus 6538-P at 50 ppm after 48 hrs
[52] = tested on: Aspergillus niger; experiment: Antimicrobial activity against Aspergillus niger at 5 ppm after 24 hrs
[53] = tested on: Salmonella enterica subsp. enterica serovar Gallinarum; experiment: Antimicrobial activity against Salmonella gallinarum X142 at 500 ppm after 24 hrs
[54] = tested on: Pseudomonas aeruginosa; experiment: Antimicrobial activity against Pseudomonas aeruginosa NCTC 10490 at 500 ppm after 24 hrs
[55] = tested on: Staphylococcus aureus; experiment: Antimicrobial activity against Staphylococcus aureus 6538-P at 500 ppm after 24 hrs
[56] = tested on: Escherichia coli; experiment: Antimicrobial activity against Escherichia coli 10536 at 500 ppm after 24 hrs
[57] = tested on: Aspergillus niger; experiment: Antimicrobial activity against Aspergillus niger at 500 ppm after 24 hrs
[58] = tested on: Streptococcus pneumoniae; experiment: Antimicrobial activity against Pneumococcus clinical isolates at 500 ppm after 24 hrs
[59] = tested on: Staphylococcus aureus; experiment: Antimicrobial activity against penicillin-resistant Staphylococcus aureus at 500 ppm after 24 hrs
[60] = tested on: Bacillus subtilis; experiment: Antimicrobial activity against Bacillus subtilis 6633 at 500 ppm after 24 hrs
[61] = tested on: Micrococcus luteus; experiment: Antimicrobial activity against Sarcina lutea 9341 at 500 ppm after 24 hrs
[62] = tested on: Bordetella bronchiseptica; experiment: Antimicrobial activity against Bordetella bronchiseptica 4614 at 500 ppm after 24 hrs

**Q.** `C=CC(C)(C)c1c2c(c(O)c3ccc(=O)oc13)C=CC(C)(C)O2` was tested. Which Activity [1] did it give?
**A.** Active

**Q.** What about the Activity [2] of the same compound?
**A.** inactive

**Q.** What about the Activity [3] of the same compound?
**A.** inactive

**Q.** And the Activity [4]?
**A.** Active

**Q.** And the Activity [5]?
**A.** inactive

**Q.** What about the Activity [6] of the same compound?
**A.** Active

**Q.** And the Activity [7]?
**A.** Active

**Q.** And the Activity [8]?
**A.** Active

**Q.** What about the Activity [9] of the same compound?
**A.** Active

**Q.** What about the Activity [10] of the same compound?
**A.** inactive

**Q.** What about the Activity [11] of the same compound?
**A.** inactive

**Q.** And the Activity [12]?
**A.** inactive

**Q.** And the Activity [13]?
**A.** inactive

**Q.** What about the Activity [14] of the same compound?
**A.** Active

**Q.** What about the Activity [15] of the same compound?
**A.** inactive

**Q.** And the Activity [16]?
**A.** inactive

**Q.** What about the Activity [17] of the same compound?
**A.** Active

**Q.** What about the Activity [18] of the same compound?
**A.** Active

**Q.** And the Activity [19]?
**A.** inactive

**Q.** What about the Activity [20] of the same compound?
**A.** inactive

**Q.** And the Activity [21]?
**A.** inactive

**Q.** What about the Activity [22] of the same compound?
**A.** inactive

**Q.** And the Activity [23]?
**A.** inactive

**Q.** And the Activity [24]?
**A.** inactive

**Q.** What about the Activity [25] of the same compound?
**A.** inactive

**Q.** And the Activity [26]?
**A.** Active

**Q.** What about the Activity [27] of the same compound?
**A.** Active

**Q.** And the Activity [28]?
**A.** inactive

**Q.** And the Activity [29]?
**A.** inactive

**Q.** And the Activity [30]?
**A.** Active

**Q.** And the Activity [31]?
**A.** Active

**Q.** What about the Activity [32] of the same compound?
**A.** inactive

**Q.** And the Activity [33]?
**A.** inactive

**Q.** And the Activity [34]?
**A.** Active

**Q.** And the Activity [35]?
**A.** Active

**Q.** What about the Activity [36] of the same compound?
**A.** Active

**Q.** What about the Activity [37] of the same compound?
**A.** inactive

**Q.** And the Activity [38]?
**A.** inactive

**Q.** And the Activity [39]?
**A.** Active

**Q.** And the Activity [40]?
**A.** inactive

**Q.** And the Activity [41]?
**A.** inactive

**Q.** And the Activity [42]?
**A.** inactive

**Q.** What about the Activity [43] of the same compound?
**A.** Active

**Q.** And the Activity [44]?
**A.** inactive

**Q.** What about the Activity [45] of the same compound?
**A.** inactive

**Q.** What about the Activity [46] of the same compound?
**A.** Active

**Q.** What about the Activity [47] of the same compound?
**A.** inactive

**Q.** And the Activity [48]?
**A.** Active

**Q.** What about the Activity [49] of the same compound?
**A.** inactive

**Q.** What about the Activity [50] of the same compound?
**A.** inactive

**Q.** And the Activity [51]?
**A.** Active

**Q.** And the Activity [52]?
**A.** inactive

**Q.** `COc1c2c(cc3oc(=O)ccc13)OC(C)(C)C=C2` was tested. Which Activity [53] did it give?
**A.** inactive

**Q.** What about the Activity [54] of the same compound?
**A.** inactive

**Q.** And the Activity [55]?
**A.** inactive

**Q.** And the Activity [56]?
**A.** inactive

**Q.** And the Activity [57]?
**A.** inactive

**Q.** What about the Activity [25] of the same compound?
**A.** inactive

**Q.** And the Activity [58]?
**A.** inactive

**Q.** What about the Activity [59] of the same compound?
**A.** inactive

**Q.** And the Activity [60]?
**A.** inactive

**Q.** And the Activity [61]?
**A.** inactive

**Q.** And the Activity [62]?
**A.** inactive

**Q.** How did the Activity [53] turn out when `C=CC(C)(C)c1c(O)c(/C=C/C(=O)O)c2c(c1O)C(=O)CC(C)(C)O2` was run?
**A.** inactive

**Q.** What about the Activity [54] of the same compound?
**A.** inactive

**Q.** And the Activity [55]?
**A.** inactive

**Q.** And the Activity [56]?
**A.** inactive

**Q.** And the Activity [57]?
**A.** inactive

**Q.** And the Activity [25]?
**A.** inactive

**Q.** And the Activity [58]?
**A.** inactive

**Q.** What about the Activity [59] of the same compound?
**A.** inactive

**Q.** And the Activity [60]?
**A.** inactive

**Q.** And the Activity [61]?
**A.** inactive

**Q.** What about the Activity [62] of the same compound?
**A.** inactive

**Q.** Which results are given for `C=CC(C)(C)c1cc2c(O)c3c(c(C(C)(C)C=C)c2oc1=O)OC(C)(C)C=C3`?
**A.** Activity [53]: inactive; Activity [54]: inactive; Activity [55]: inactive; Activity [56]: inactive; Activity [57]: inactive; Activity [25]: inactive; Activity [58]: inactive; Activity [59]: inactive; Activity [60]: inactive; Activity [61]: inactive; Activity [62]: inactive

**Q.** For `C=CC(C)(C)c1c(O)c2c(c3ccc(=O)oc13)OC(C)(C)CC2=O`, which Activity [53] is on record?
**A.** inactive

**Q.** And the Activity [54]?
**A.** inactive

**Q.** And the Activity [55]?
**A.** inactive

**Q.** And the Activity [56]?
**A.** inactive

**Q.** And the Activity [57]?
**A.** inactive

**Q.** And the Activity [25]?
**A.** inactive

**Q.** And the Activity [58]?
**A.** inactive

**Q.** What about the Activity [59] of the same compound?
**A.** inactive

**Q.** What about the Activity [60] of the same compound?
**A.** inactive

**Q.** What about the Activity [61] of the same compound?
**A.** inactive

**Q.** What about the Activity [62] of the same compound?
**A.** inactive

— ChEMBL document CHEMBL1151405, “Biological and phytochemical investigation of Clausena excavata” (J Nat Prod, 1982)
